According to article PMC10215804, “Exploring Alternative Pathways to Target Bacterial Type II Topoisomerases Using NBTI Antibacterials: Beyond Halogen-Bonding Interactions” (Antibiotics, 2023):
In brackets after ≈: the same amount, converted by molar mass. Where two headings read alike, the source gives them in different places.

Tests used:
Assay in all cases: MIC, broth microdilution
MRSA (QA-11.2) = assay type: cell-based, S. aureus; details: Staphylococcus aureus
Experimental: (§1) For the determination of minimum inhibitory concentrations (MIC), the broth microdilution method was used in 96-well plate format, according to the guidelines of the Clinical and Laboratory Standards Institute and the recommendations of the European Committee on Antimicrobial Susceptibility Testing (EUCAST). The dilutions of the bacterial suspension of the specific bacterial strain, corresponding to the 0.5 McFarland turbidity standard, were prepared with […] Mueller–Hinton broth with TES (Thermo Fisher Scientific) to obtain an end inoculum of 10^5 CFU/mL. The compounds were dissolved in DMSO and mixed with the inoculum. […] The MIC was determined as the lowest concentration of antibiotic that prevented visible bacterial growth. Tetracycline was used as a positive control on each test plate.

MRSA(QA-12.1) = assay type: cell-based, S. aureus; details: Staphylococcus aureus
Experimental: as §1

MRSA (QA-11.7) = assay type: cell-based, S. aureus; details: Staphylococcus aureus
Experimental: as §1

E. coli N43 (CGSC# 5583) = assay type: cell-based; details: Escherichia coli
Experimental: as §1

E. faecalis RDK 057 = assay type: cell-based; details: Enterococcus faecalis, RDK057
Experimental: as §1

VRE = assay type: cell-based; details: Enterococcus
Experimental: as §1

K. pneumoniae = assay type: cell-based; details: Klebsiella pneumoniae
Experimental: as §1

E. coli (ATCC 25922) = assay type: cell-based; details: Escherichia coli, ATCC25922
Experimental: as §1

P. aeruginosa RDK 184 = assay type: cell-based; details: Pseudomonas aeruginosa, RDK184
Experimental: as §1

S. aureus (ATCC 29213) = assay type: cell-based; details: Staphylococcus aureus, ATCC29213; Table S3; read-out: MIC (μM) S. aureus (ATCC 29213)
Experimental: as §1

E. coli D22 = assay type: cell-based; details: Escherichia coli, D22; Table S3; lpxC mutation; read-out: MIC (μM) E. coli D22
Experimental: as §1

A. baumannii = assay type: cell-based; details: Acinetobacter baumannii
Experimental: as §1

O=c1ccc2ncc(=O)n3c2n1C[C@H]3CN1CCC(NCc2cc3c(cn2)OCCC3)CC1 [Gepo, gepotidacin, reference compound]
MIC (MRSA (QA-11.2); Table S3, read-out: MIC (μM) MRSA (QA-11.2)): 1.28 µM
MIC (MRSA (QA-11.2); read-out: MIC MRSA (QA-11.2)): 0.5 µg/mL
MIC (MRSA(QA-12.1); Table S3, read-out: MIC (μM) MRSA(QA-12.1)): 0.32 µM
MIC (MRSA(QA-12.1); strain resistant to cefoxitin, gentamicin, kanamycin, rifampicin, streptomycin, sulfamethoxazole, tetracycline, read-out: MIC MRSA(QA-12.1)): 0.125 µg/mL
MIC (MRSA (QA-11.7); Table S3, read-out: MIC (μM) MRSA (QA-11.7)): 0.161 µM
MIC (MRSA (QA-11.7); strain resistant to cefoxitin, ciprofloxacin, clindamycin, erythromycin, tetracycline, thiamulin, trimethoprim, read-out: MIC MRSA (QA-11.7)): 0.063 µg/mL
MIC (E. coli N43 (CGSC# 5583); read-out: MIC (μM) E. coli N43): 0.041 µM
MIC (E. coli N43 (CGSC# 5583); read-out: MIC E. coli N43 (CGSC# 5583)): 0.016 µg/mL
MIC (E. faecalis RDK 057; Table S3, read-out: MIC (μM) E. faecalis DRK 057): 5.12 µM
MIC (E. faecalis RDK 057; read-out: MIC E. faecalis RDK 057): 2 µg/mL
MIC (VRE; Table S3, read-out: MIC (μM) VRE): 2.56 µM
MIC (VRE; read-out: MIC VRE): 1 µg/mL
MIC (K. pneumoniae; Table S3, read-out: MIC (μM) K. pneumoniae): 20.5 µM
MIC (K. pneumoniae; read-out: MIC K. pneumoniae): 8 µg/mL
MIC (E. coli (ATCC 25922); Table S3, read-out: MIC (μM) E. coli (ATCC 25922)): 2.56 µM
MIC (E. coli (ATCC 25922); read-out: MIC E. coli (ATCC 25922)): 1 µg/mL
MIC (P. aeruginosa RDK 184; Table S3, read-out: MIC (μM) P. aeruginosa RDK 184): 20.5 µM
MIC (P. aeruginosa RDK 184; read-out: MIC P. aeruginosa RDK 184): 8 µg/mL
MIC (S. aureus (ATCC 29213)): 0.32 µM (≈ 0.144 µg/mL)
MIC (E. coli D22): 0.32 µM (≈ 0.144 µg/mL)
MIC (A. baumannii; Table S3, read-out: MIC (μM) A. baumannii): 20.5 µM
MIC (A. baumannii; read-out: MIC A. baumannii): 8 µg/mL
